ChEMBL document CHEMBL1133904, “Stereoselective synthesis and antibacterial evaluation of 4-amido-isothiazolidinone oxides” (Bioorg Med Chem Lett, 2001)
≈ marks a conversion by molar mass, not a printed value.

Legend:
[1] = tested on: Moraxella catarrhalis; assay: In vitro antibacterial activity against Moraxella catarrhalis; format: functional
[2] = Half life period was measured at pH 7.4 in phosphate buffer; format: ADME
[3] = target: T1, Penicillin-binding protein 3 (Staphylococcus aureus, UniProt Q5D1F0); assay: Inhibition of Penicillin-binding protein 3 (PBP3) from Staphylococcus aureus
T1 sequence (Q5D1F0 whole entry): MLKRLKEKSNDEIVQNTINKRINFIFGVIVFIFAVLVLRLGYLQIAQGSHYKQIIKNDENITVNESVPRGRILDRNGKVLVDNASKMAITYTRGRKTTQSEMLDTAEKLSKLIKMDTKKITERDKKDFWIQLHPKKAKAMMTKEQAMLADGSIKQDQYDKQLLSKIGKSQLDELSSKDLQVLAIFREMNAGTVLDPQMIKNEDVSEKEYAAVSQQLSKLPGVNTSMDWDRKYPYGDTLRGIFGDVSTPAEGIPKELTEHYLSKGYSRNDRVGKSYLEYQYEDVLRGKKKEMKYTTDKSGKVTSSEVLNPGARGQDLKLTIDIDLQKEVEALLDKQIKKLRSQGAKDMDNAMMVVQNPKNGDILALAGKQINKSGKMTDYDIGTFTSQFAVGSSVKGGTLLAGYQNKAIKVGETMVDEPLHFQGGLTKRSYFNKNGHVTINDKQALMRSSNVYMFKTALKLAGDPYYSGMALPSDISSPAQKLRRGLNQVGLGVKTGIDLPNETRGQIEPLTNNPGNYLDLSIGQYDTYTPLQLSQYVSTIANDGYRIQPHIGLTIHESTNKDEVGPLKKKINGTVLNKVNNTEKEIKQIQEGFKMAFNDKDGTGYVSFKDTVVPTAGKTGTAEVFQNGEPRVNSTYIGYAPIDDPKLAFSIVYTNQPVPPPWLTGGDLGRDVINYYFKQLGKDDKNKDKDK

[4] = target: T2, Penicillin-binding protein 2 (Staphylococcus aureus, UniProt Q53729); assay: Inhibition of Penicillin-binding protein 2 (PBP2) from Staphylococcus aureus
T2 sequence (Q53729 whole entry): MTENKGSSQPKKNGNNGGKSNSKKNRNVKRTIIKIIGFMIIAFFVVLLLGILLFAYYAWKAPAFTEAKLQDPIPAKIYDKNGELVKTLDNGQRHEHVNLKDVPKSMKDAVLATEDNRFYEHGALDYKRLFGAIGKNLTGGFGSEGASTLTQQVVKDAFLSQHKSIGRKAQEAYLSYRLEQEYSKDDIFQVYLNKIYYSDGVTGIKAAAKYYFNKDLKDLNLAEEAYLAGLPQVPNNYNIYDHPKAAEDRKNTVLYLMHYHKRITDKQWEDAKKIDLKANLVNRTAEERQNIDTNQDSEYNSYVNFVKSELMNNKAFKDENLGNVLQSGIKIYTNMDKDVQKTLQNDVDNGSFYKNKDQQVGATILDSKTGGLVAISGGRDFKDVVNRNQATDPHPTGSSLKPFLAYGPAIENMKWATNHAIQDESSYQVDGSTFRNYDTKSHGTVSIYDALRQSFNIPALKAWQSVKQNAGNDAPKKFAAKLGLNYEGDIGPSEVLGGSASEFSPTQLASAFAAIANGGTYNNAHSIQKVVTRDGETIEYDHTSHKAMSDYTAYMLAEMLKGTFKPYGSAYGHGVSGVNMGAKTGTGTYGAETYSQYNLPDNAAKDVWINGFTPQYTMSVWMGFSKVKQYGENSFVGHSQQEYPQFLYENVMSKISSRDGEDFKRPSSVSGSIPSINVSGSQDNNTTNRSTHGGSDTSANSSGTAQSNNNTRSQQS

[5] = target: T3, Penicillin-binding protein 1 (Staphylococcus aureus, UniProt Q53725); assay: Inhibition of Penicillin-binding protein 1 (PBP1) from Staphylococcus aureus
T3 sequence (Q53725 whole entry): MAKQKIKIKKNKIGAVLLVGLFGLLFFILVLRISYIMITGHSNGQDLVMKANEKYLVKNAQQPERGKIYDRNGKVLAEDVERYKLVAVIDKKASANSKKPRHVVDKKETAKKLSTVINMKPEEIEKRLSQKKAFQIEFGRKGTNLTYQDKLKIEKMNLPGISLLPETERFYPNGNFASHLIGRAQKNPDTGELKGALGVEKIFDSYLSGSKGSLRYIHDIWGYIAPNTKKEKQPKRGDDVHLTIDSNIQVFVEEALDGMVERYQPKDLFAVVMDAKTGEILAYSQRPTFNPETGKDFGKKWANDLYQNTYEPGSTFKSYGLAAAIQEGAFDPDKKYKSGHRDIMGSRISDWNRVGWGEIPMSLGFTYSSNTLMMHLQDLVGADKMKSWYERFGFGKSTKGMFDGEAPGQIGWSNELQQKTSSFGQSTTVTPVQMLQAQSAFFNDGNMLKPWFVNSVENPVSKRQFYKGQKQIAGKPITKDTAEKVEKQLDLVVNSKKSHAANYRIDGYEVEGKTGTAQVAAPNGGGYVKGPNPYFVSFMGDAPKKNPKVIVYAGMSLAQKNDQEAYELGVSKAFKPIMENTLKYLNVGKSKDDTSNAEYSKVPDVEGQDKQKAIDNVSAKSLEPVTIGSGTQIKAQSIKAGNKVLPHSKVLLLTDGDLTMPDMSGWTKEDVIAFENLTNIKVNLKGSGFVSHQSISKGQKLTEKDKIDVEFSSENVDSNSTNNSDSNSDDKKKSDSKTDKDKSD

[6] = tested on: Enterobacter cloacae; assay: In vitro antibacterial activity against Enterobacter cloacae; format: functional
[7] = tested on: Klebsiella pneumoniae; assay: In vitro antibacterial activity against Klebsiella pneumoniae; format: functional
[8] = tested on: Moraxella catarrhalis; assay: In vitro antibacterial activity against Moraxella catarrhalis; range is 31.3->1000; format: functional
[9] = tested on: Klebsiella pneumoniae; assay: In vitro antibacterial activity against Klebsiella pneumoniae; range is 31.3->1000; format: functional
[10] = tested on: Enterobacter cloacae; assay: In vitro antibacterial activity against Enterobacter cloacae; range is 31.3->1000; format: functional
[11] = tested on: Klebsiella pneumoniae; assay: In vitro antibacterial activity against Klebsiella pneumoniae; range is 2->32; format: functional
[12] = tested on: Staphylococcus aureus; assay: In vitro antibacterial activity against Staphylococcus aureus; range is 2->32; format: functional
[13] = tested on: Streptococcus pneumoniae; assay: In vitro antibacterial activity against Streptococcus pneumoniae; range is 2->32; format: functional
[14] = tested on: Klebsiella pneumoniae; assay: In vitro antibacterial activity against Klebsiella pneumoniae; range is 15.6->1000; format: functional
[15] = tested on: Moraxella catarrhalis; assay: In vitro antibacterial activity against Moraxella catarrhalis; range is 15.6->1000; format: functional
[16] = tested on: Enterobacter cloacae; assay: In vitro antibacterial activity against Enterobacter cloacae; range is 15.6->1000; format: functional
[17] = tested on: Moraxella catarrhalis; assay: In vitro antibacterial activity against Moraxella catarrhalis; range is 62.6->1000; format: functional
[18] = tested on: Klebsiella pneumoniae; assay: In vitro antibacterial activity against Klebsiella pneumoniae; range is 62.6->1000; format: functional
[19] = tested on: Enterobacter cloacae; assay: In vitro antibacterial activity against Enterobacter cloacae; range is 62.6->1000; format: functional
[20] = tested on: Enterobacter cloacae; assay: In vitro antibacterial activity against Enterobacter cloacae; range is 125->1000; format: functional
[21] = tested on: Klebsiella pneumoniae; assay: In vitro antibacterial activity against Klebsiella pneumoniae; range is 125->1000; format: functional
[22] = tested on: Moraxella catarrhalis; assay: In vitro antibacterial activity against Moraxella catarrhalis; range is 125->1000; format: functional
[23] = tested on: Klebsiella pneumoniae; assay: In vitro antibacterial activity against Klebsiella pneumoniae; range is 16->1000; format: functional
[24] = tested on: Enterobacter cloacae; assay: In vitro antibacterial activity against Enterobacter cloacae; range is 16->1000; format: functional
[25] = tested on: Moraxella catarrhalis; assay: In vitro antibacterial activity against Moraxella catarrhalis; range is 16->1000; format: functional
[26] = tested on: Staphylococcus aureus; assay: In vitro antibacterial activity against Staphylococcus aureus; range is 1.6->100; format: functional
[27] = tested on: Klebsiella pneumoniae; assay: In vitro antibacterial activity against Klebsiella pneumoniae; range is 1.6->100; format: functional
[28] = tested on: Streptococcus pneumoniae; assay: In vitro antibacterial activity against Streptococcus pneumoniae; range is 1.6->100; format: functional
[29] = tested on: Staphylococcus aureus; assay: In vitro antibacterial activity against Staphylococcus aureus; range is 62.5->1000; format: functional
[30] = tested on: Streptococcus pneumoniae; assay: In vitro antibacterial activity against Streptococcus pneumoniae; range is 62.5->1000; format: functional
[31] = tested on: Klebsiella pneumoniae; assay: In vitro antibacterial activity against Klebsiella pneumoniae; range is 62.5->1000; format: functional

Structure (SMILES) | MIC [1] [µg/mL] | half-life [2] [h] | IC50 [3] [µM] | IC50 [4] [µM] | IC50 [5] [µM] | MIC [6] [µg/mL] | MIC [7] [µg/mL] | further results
CC(C)[C@H](C(=O)O)N1C(=O)[C@@H](NC(=O)COc2ccccc2)C[S+]1[O-] (stereo partly specified) | > 1000 | < 3.3 | > 679 | > 679 | > 679 | > 1000 | > 1000 | 
CC(C(=O)OC(C)(C)C)N1C(=O)C(NC(=O)Oc2ccc(Cl)cc2)CS1(=O)=O (stereo unspecified) |  |  | > 578 | > 578 | > 578 |  |  | MIC [8]: 31.3 µg/mL (≈ 72.3 µM); MIC [9]: 31.3 µg/mL (≈ 72.3 µM); MIC [10]: 31.3 µg/mL (≈ 72.3 µM)
O=C(O)CN1C(=O)C(NC(=O)COc2ccccc2)CS1(=O)=O (stereo unspecified) | > 100 | 11.9 | > 730 | > 730 | > 730 | > 100 | > 100 | 
CC(C)[C@H](C(=O)O)N1C[C@H](NC(=O)COc2ccccc2)C1=O |  | > 48 | > 780 | > 780 | > 780 |  |  | MIC [11]: 2 µg/mL (≈ 6.24 µM); MIC [12]: 2 µg/mL (≈ 6.24 µM); MIC [13]: 2 µg/mL (≈ 6.24 µM)
O=C(CN1C(=O)C(NC(=O)Oc2ccc(Cl)cc2)CS1(=O)=O)OCc1ccccc1 (stereo unspecified) |  | 5.1 | > 552 | > 552 | > 552 |  |  | MIC [14]: 15.6 µg/mL (≈ 34.4 µM); MIC [15]: 15.6 µg/mL (≈ 34.4 µM); MIC [16]: 15.6 µg/mL (≈ 34.4 µM)
CC(C)C(C(=O)OC(C)(C)C)N1C(=O)C(NC(=O)OCc2ccccc2)CS1(=O)=O (stereo unspecified) |  | 15.8 | > 568 | > 568 | > 568 |  |  | MIC [8]: 31.3 µg/mL (≈ 71.1 µM); MIC [9]: 31.3 µg/mL (≈ 71.1 µM); MIC [10]: 31.3 µg/mL (≈ 71.1 µM)
CC(C)[C@@H](C(=O)O)N1C(=O)[C@@H](NC(=O)COc2ccccc2)C[S+]1[O-] (stereo partly specified) | > 1000 | < 1.4 | > 679 | > 679 | > 679 | > 1000 | > 1000 | 
CC(C)[C@H](C(=O)OCc1ccccc1)N1C(=O)[C@@H](NC(=O)COc2ccccc2)C[S+]1[O-] (stereo partly specified) |  | < 0.5 | > 545 | > 545 | > 545 |  |  | MIC [17]: 62.6 µg/mL (≈ 137 µM); MIC [18]: 62.6 µg/mL (≈ 137 µM); MIC [19]: 62.6 µg/mL (≈ 137 µM)
CC(C(=O)O)N1C(=O)C(NC(=O)Oc2ccc(Cl)cc2)CS1(=O)=O (stereo unspecified) |  | 15.7 | > 664 | > 664 | > 664 |  |  | MIC [20]: 125 µg/mL (≈ 332 µM); MIC [21]: 125 µg/mL (≈ 332 µM); MIC [22]: 125 µg/mL (≈ 332 µM)
CC(C)[C@@H](C(=O)O)N1C(=O)C(NC(=O)COc2ccccc2)CS1(=O)=O (stereo partly specified) |  | 22 | > 650 | > 650 | > 650 |  |  | MIC [23]: 16 µg/mL (≈ 41.6 µM); MIC [24]: 16 µg/mL (≈ 41.6 µM); MIC [25]: 16 µg/mL (≈ 41.6 µM)
CO/N=C(/C(=O)NC1CS(=O)(=O)N(CC(=O)O)C1=O)c1csc(N)n1.O=C(O)C(F)(F)F (stereo unspecified) | > 64 | 5.6 | > 495 | > 495 | > 495 | > 64 | > 64 | 
CCCCNOS(=O)(=O)N1C(=O)[C@@H](NC(=O)COc2ccc(Cl)cc2)CS1(=O)=O | > 64 | < 0.4 | > 532 | > 532 | > 532 | > 64 | > 64 | 
CCCCNOS(=O)(=O)N1C[C@H](NC(=O)Cc2ccccc2)C1=O |  |  | > 703 | > 703 | > 703 |  |  | MIC [26]: 1.6 µg/mL (≈ 4.5 µM); MIC [27]: 1.6 µg/mL (≈ 4.5 µM); MIC [28]: 1.6 µg/mL (≈ 4.5 µM)
O=C(O)CN1C[C@H](NC(=O)COc2ccccc2)C1=O |  | > 32 | > 898 | > 898 | > 898 |  |  | MIC [29]: 62.5 µg/mL (≈ 225 µM); MIC [30]: 62.5 µg/mL (≈ 225 µM); MIC [31]: 62.5 µg/mL (≈ 225 µM)
